Literature values in patent US9981058B2, “Balloon surface coating” (CARDIONOVUM Sp.z.o.o., priority 2011, dated 2018).
Like-named read-outs stand apart in the source and are kept apart here.

## CC(=O)O[C@H]1C(=O)[C@@]2(C)[C@H]([C@H](OC(=O)c3ccccc3)[C@]3(O)C[C@H](OC(=O)[C@H](O)[C@@H](NC(=O)c4ccccc4)c4ccccc4)C(C)=C1C3(C)C)[C@]1(OC(C)=O)CO[C@@H]1C[C@@H]2O (relative stereo) [Paclitaxel, [2aR-[2a,4,4a,6,9(R*,S*),11, 12,12a,12b]]-(benzoylamino)-hydroxybenzene propionic acid 6,12b-bis-(acetyloxy)-12-(benzoyloxy)-2a-3,4,4a,5,6,9, 10, 11, 12, 12a,12b-dodecahydro-4, 11-dihydroxy-4a,8,13,13-tetramethyl-5-oxo-7,11-methano-1H-cyclodeca[3,4]benz[1,2-b]oxet-9-yl ester)]
In dimethyl sulfoxide (DMSO), methanol and anhydrous ethanol
  Solubility: highly soluble
In water
  Solubility: comparatively poorly soluble
